For nine compounds, inhibition and IC50 results are on record in patent publication US5492918A, “Use of substituted chromans, some of which are known, as medicaments, new active compounds and processes for their preparation” (Bayer Aktiengesellschaft, priority 1993, dated 1996).

Each structure is given as a SMILES string. Like-named read-outs stand apart in the source and are kept apart here.

Assay [1] concerns the target T1, HIV protease (Human immunodeficiency virus type 1 group M subtype B, UniProt P04585).
T1 construct: purified HIV protease
Kind of assay: biochemical. Conditions: for inhibition at 200 µg/mL: read-out: % Inhibition at 200 μg/ml. As for the experimental part: This is confirmed by an HIV-specific protease enzyme test.
The results of the examples shown below were determined by the HIV test system described in the following bibliographical references [cf. Hansen, J., Billich, S., Schulze, T., Sukrow, S. and Molling, K. (1988), EMBO Journal, Vol, 7, No. 6, pp. 1785-1791]: purified HIV protease was incubated with synthetic peptide which imitated a cleavage site in the Gag precursor protein and is an in vivo cleavage site of HIV protease. The resultant cleavage products of the synthetic peptide were analysed by means of reverse phase high performance liquid chromatography (RP-HPLC). The IC50 values indicated relate to the substance concentration which, under the abovementioned test conditions, causes a 50% inhibition of protease activity.

The subject of assay [2] is HIV. As to the kind of experiment: HIV infection in cell culture: suppression of virus-induced syncytia in human blood lymphocytes (PBL). It is filed as cell-based. The note with it: Human immunodeficiency virus 1, 72 h, 50% of virus-induced syncytia suppressed, day 3 to 6 after infection. As for the experimental part:
The HIV test was carried out with slight modifications by the method of Pauwels et al,. [cf. Journal of Virological Methods 20, (1988) , 309-321].
Normal human blood lymphocytes (PBLs) were concentrated on Ficoll Hypaque and stimulated with phytohaemagglutinin (90 μg/ml) and interleukin-2 (40 U/ml) in RPMI 1640, 20% foetal calf serum. For infection with the infectious HIV, PBLs were pelleted and the cell pellet was then suspended in 1 ml of HIV virus adsorption solution and incubated at 37° C for 1 hour.
Alternatively, HIV-susceptible H9 cells were employed instead of normal human blood lymphocytes for testing of the antiviral effects of the compounds according to the invention.
The virus adsorption solution was centrifuged and the infected cell pellet was taken up in growth medium such that a concentration of 1×10^5 cells per ml was set. The cells infected in this way were pipetted at 1×10^4 cells/well into the wells of 96-well microtitre plates.
The first vertical row of the microtitre plate contained only growth medium and cells which had not been infected but otherwise treated exactly as described above (cell control). […]
The test batches were incubated at 37° C until the syncytia formation typical of HIV occurred in the untreated virus control (between day 3 and 6 after infection), which was then assessed microscopically. […]

Setting [3] is: 200 μg/ml, purified HIV protease, synthetic peptide substrate, RP-HPLC.

With `O=c1[nH]c2ccccc2n1C1CCN(CC2CCc3ccccc3O2)CC1` (centres unmarked) [Example 27], the inhibition at 200 µg/mL in assay [1] stood at 81%.

For `COc1cccc2c1OC(C(=O)N1CCC(NC(=O)Nc3ccccc3)CC1)CC2` (centres unmarked) [Example 1, 8-Methoxy-2-[4-(phenylaminocarbonyl-amino)piperidylcarbonyl]-chroman], the inhibition at 200 µg/mL in assay [1] (setting [3]) turned out to be 99%.

`COc1cccc2c1OC(C(=O)N1CCC(n3c(=O)[nH]c4ccccc43)CC1)CC2` (centres unmarked) [Example 24]: the inhibition at 200 µg/mL in assay [1] (setting [3]) was found to be 99%. As a reminder, the IC50 is the point on the concentration scale where inhibition reaches its midpoint. Low readings indicate inhibition by little substance, high ones a need for much substance. As for `COc1cccc2c1OC(CN1CCC(n3c(=O)[nH]c4ccccc43)CC1)CC2` (centres unmarked) [Example 30], the 50% inhibitory concentration (IC50) in assay [1] (50% inhibition of protease activity, purified HIV protease, synthetic peptide substrate) is 0.0002 µM; in assay [2] it was 10 µM. The inhibition at 200 µg/mL in assay [1] came to 99%.

Take `O=c1[nH]c2ccccc2n1C1CCN(CC2CCc3cccc(O)c3O2)CC1` (racemic) [Example 33, 8-Hydroxy-2-[4-(2-oxo-1-benzimidazolyl)piperidylmethyl]-chroman]: in assay [1], the inhibition at 200 µg/mL amounted to 99%.

`COc1cccc2c1O[C@H](C(=O)N1CCC(n3c(=O)[nH]c4ccccc43)CC1)CC2` [Example 25]: the inhibition at 200 µg/mL in assay [1] (setting [3]) stood at 74%. The compound `COc1cccc2c1O[C@H](CN1CCC(n3c(=O)[nH]c4ccccc43)CC1)CC2` [Example 31] returned a 50% inhibitory concentration (IC50) in assay [2] of 10 µM. In the case of `O=c1[nH]c2ccccc2n1C1CCN(C[C@@H]2CCc3ccccc3O2)CC1` [Example 28], the inhibition at 200 µg/mL in assay [1] stood at 94%. As for `O=C(C1CCc2ccccc2O1)N1CCC(n2c(=O)[nH]c3ccccc32)CC1` (centres unmarked) [Example 21], the inhibition at 200 µg/mL in assay [1] (setting [3]) turned out to be 65%.
